Assay: xn = mol fraction of the nth substance listed
Settings: 100 kPa

CCCC[N+]1(C)CCCC1.O=S(=O)([N-]S(=O)(=O)C(F)(F)F)C(F)(F)F + O=C1CCCO1
Settings	electrical conductivity [S/m]	viscosity [mPa·s]
298.15 K, x2 = 0	0.277	76.7
298.15 K, x2 = 0.1075	0.329	58.5
298.15 K, x2 = 0.2019	0.394	44.4
298.15 K, x2 = 0.3004	0.468	34.2
298.15 K, x2 = 0.3996	0.554	24.5
298.15 K, x2 = 0.5044	0.726	16.91
298.15 K, x2 = 0.5999	0.953	12.03
298.15 K, x2 = 0.7009	1.24	8.13
298.15 K, x2 = 0.7997	1.47	5.31
298.15 K, x2 = 0.8509	1.55	–
298.15 K, x2 = 0.9	1.46	3.32
298.15 K, x2 = 0.9498	1.12	–
303.15 K, x2 = 0	0.338	61.7
303.15 K, x2 = 0.1075	0.381	47.8
303.15 K, x2 = 0.3004	0.545	28.4
303.15 K, x2 = 0.3996	0.654	20.78
303.15 K, x2 = 0.5044	0.818	14.5
303.15 K, x2 = 0.5999	1.08	10.43
303.15 K, x2 = 0.7009	1.37	7.18
303.15 K, x2 = 0.7997	1.63	4.78
303.15 K, x2 = 0.8509	1.72	–
303.15 K, x2 = 0.9	1.59	3.04
303.15 K, x2 = 0.9498	1.22	–
308.15 K, x2 = 0	0.412	50.5
308.15 K, x2 = 0.2019	0.545	30.6
308.15 K, x2 = 0.3996	0.758	17.56
308.15 K, x2 = 0.5044	0.92	12.58
308.15 K, x2 = 0.5999	1.21	9.19
308.15 K, x2 = 0.7009	1.52	6.39
308.15 K, x2 = 0.7997	1.8	4.35
308.15 K, x2 = 0.8509	1.89	–
308.15 K, x2 = 0.9	1.72	2.79
313.15 K, x2 = 0	0.491	41.7
313.15 K, x2 = 0.1075	0.538	32.9
313.15 K, x2 = 0.2019	0.621	26.1
313.15 K, x2 = 0.3004	0.736	20.38
313.15 K, x2 = 0.3996	0.865	15.37
313.15 K, x2 = 0.5044	1.02	11.12
313.15 K, x2 = 0.5999	1.34	8.16
313.15 K, x2 = 0.7997	1.97	3.96
313.15 K, x2 = 0.8509	2.06	–
313.15 K, x2 = 0.9	1.85	2.57
318.15 K, x2 = 0	0.579	34.7
318.15 K, x2 = 0.1075	0.616	27.6
318.15 K, x2 = 0.3004	0.812	17.43
318.15 K, x2 = 0.3996	0.971	13.26
318.15 K, x2 = 0.5044	1.15	9.7
318.15 K, x2 = 0.5999	1.45	7.2
318.15 K, x2 = 0.7009	1.83	5.14
318.15 K, x2 = 0.7997	2.14	3.6
318.15 K, x2 = 0.9	1.99	2.38
323.15 K, x2 = 0	0.672	29.5
323.15 K, x2 = 0.1075	0.713	23.1
323.15 K, x2 = 0.2019	0.785	19.22
323.15 K, x2 = 0.3996	1.08	11.55
323.15 K, x2 = 0.5044	1.28	8.62
323.15 K, x2 = 0.7997	2.31	3.31
323.15 K, x2 = 0.8509	2.4	–
323.15 K, x2 = 0.9	2.12	2.21

CC[n+]1ccn(C)c1.O=S(=O)([N-]S(=O)(=O)C(F)(F)F)C(F)(F)F + O=C1CCCO1
electrical conductivity [S/m]
Settings	293.15 K	298.15 K	303.15 K	308.15 K	313.15 K	318.15 K	323.15 K
x2 = 0	–	0.915	–	–	–	1.51	1.75
x2 = 0.1009	0.905	1.04	1.18	1.32	1.49	1.67	1.89
x2 = 0.2073	1.05	–	–	1.48	1.65	–	–
x2 = 0.3005	–	1.32	–	1.61	–	1.96	2.19
x2 = 0.3897	1.29	1.45	1.61	1.76	1.92	2.11	2.34
x2 = 0.5101	–	1.63	–	1.95	2.12	–	2.53
x2 = 0.6	1.6	1.76	1.93	2.09	2.25	2.45	–
x2 = 0.7	1.73	1.9	–	2.23	2.4	2.59	2.81
x2 = 0.7994	1.77	1.94	–	–	2.42	–	2.79
x2 = 0.8498	1.75	1.9	–	2.19	2.35	2.51	2.71
x2 = 0.9005	–	1.72	1.85	1.98	–	2.25	2.4
x2 = 0.95	–	1.22	–	1.4	1.5	–	1.7

Reference: a compilation of properties of binary mixtures (doi:10.2298/jsc190413047v)
